Reference: patent publication US10030016B2 (Sunesis Pharmaceuticals, Inc., priority 2009, dated 2018)
Structures can show the parent of a compound that is named as a salt. Where two headings read alike, the source gives them in different places.

Experiments:
PDK1 = PDK1 (Homo sapiens (Human), UniProt O15530); experiment: PDK1 kinase assay (coupled PDK1/AKT/FAM-crosstide assay, IMAP fluorescence polarization); format: biochemical
Method in brief: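 GST-tagged PDK1 (aa 51-359, 0.75 nM) was coupled to unphosphorylated GST-AKT2 140-467-PIFtide (10 nM) and 100 nM FAM-crosstide at 40 μM ATP, in Tris pH 7.2 buffer, for 30 min at 25 °C. Crosstide phosphorylation was read by IMAP fluorescence polarization (ΔmP) and fitted with a 4-parameter curve.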

[1] = test system: phospho-akt (Thr308) in PC-3 cells; experiment: Inhibition of phospho-akt (Thr308) in PC-3 cells, MSD phospho-akt 308 ELISA kit; format: cell-based; details: Homo sapiens, 2 hours, no serum, read-out: EC50
Method in brief: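 Electrochemiluminescent MSD ELISA of Thr308-phosphorylated Akt after a 2 h serum-free compound exposure of PC-3 cells (15,000/well, plated overnight). Controls: DMSO (high), 5 μM wortmannin (low). Lysate binding overnight at 4 °C; detection antibody 1 h at room temperature.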

[2] = inhibition of phospo-PDK1 in vitro
[3] = inhibition of P308 Akt in PC-3 cells, MSD
[4] = inhibition of P308 Akt in PC-3 cells using MSD

Chain of PDK1 (O15530 51-359): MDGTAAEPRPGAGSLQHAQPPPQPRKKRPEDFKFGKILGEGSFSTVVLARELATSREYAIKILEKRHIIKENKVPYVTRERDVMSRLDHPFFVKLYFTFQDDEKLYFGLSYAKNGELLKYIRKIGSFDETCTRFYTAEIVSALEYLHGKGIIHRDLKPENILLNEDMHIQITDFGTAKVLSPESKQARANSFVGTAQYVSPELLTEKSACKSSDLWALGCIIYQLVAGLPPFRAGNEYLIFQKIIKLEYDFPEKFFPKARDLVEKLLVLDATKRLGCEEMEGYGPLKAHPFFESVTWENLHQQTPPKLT

| Structure (SMILES) | IC50 (PDK1; [2]) | EC50 [1, 3] | IC50 (PDK1; inhibition of PDK1 in vitro) | EC50 [1, 4] | EC50 ([1]; PC-3, 2 h, inhibition of P308 Akt in PC-3 cells, MSD) |
| --- | --- | --- | --- | --- | --- |
| CNC(=O)c1cc(S(=O)(=O)NC(C)(C)C)cnc1NCc1ccc(-c2ccc3ncnc(N)c3c2)s1 [Example 8.6.18, 2-(((5-(4-aminoquinazolin-6-yl)thiophen-2-yl)methyl)amino)-5-(N-t-butylsulfamoyl)-N-methylnicotinamide] | > 5 µM | 1 to 10 µM | – | – | – |
| Nc1cnc(-c2ccc(CNc3ncc(C(F)(F)F)cc3C(=O)NCc3ccc(F)cc3)cc2)cn1 [Example 383, 2-(4-(5-aminopyrazin-2-yl)benzylamino)-N-(4-fluorobenzyl)-5-(trifluoromethyl)nicotinamide] | – | – | < 0.1 µM | < 1 µM | – |
| C[C@H](NC(=O)c1nc(C#N)cnc1NCc1ccc(-c2ccn3ncnc(N)c23)cc1)c1ccc(F)c(F)c1 [Example 175, 3-[4-(4-Amino-pyrrolo [2,1-f][1,2,4]triazin-5-yl)-benzylamino]-6-cyano-pyrazine-2-carboxylic acid [(S)-1-(3,4-difluoro-phenyl)-ethyl]-amide] | – | – | < 0.1 µM | < 1 µM | – |
| O=C(NCc1ccc(F)c(F)c1)c1cccnc1NCc1csc(-c2ccc3ncnc(NC4CC4)c3c2)n1 [Ex. 6.9, 2-[({2-[4-(cyclopropyl-amino)quinazolin-6-yl)-1,3-thiazol-4-yl}methyl)amino]-N-(3,4-difluorobenzyl) pyridine-3-carboxamide] | < 0.1 µM | > 10 µM | – | – | – |
| C[C@H](NC(=O)c1cccnc1NCc1ccc(-c2cc3c(N)ncnc3cn2)s1)c1ccc(F)cc1 [Example 2.13.1, (S)-2-(((5-(4-aminopyrido[3,4-d]pyrimidin-6-yl)thiophen-2-yl)methyl)amino)-N-(1-(4-fluoro-phenyl)ethyl)nicotinamide] | 0.1 to 1 µM | – | – | – | 1 to 10 µM |
| C[C@H](NC(=O)c1nc(C#N)cnc1NCc1ccc(-c2cn(C)c3ncnc(N)c23)cc1)c1ccc(F)c(F)c1 [Example 27, (S)-3-(4-(4-amino-7-methyl-7H-pyrrolo[2,3-d]pyrimidin-5-yl)benzylamino)-6-cyano-N-(1-(3,4-difluorophenyl)ethyl)pyrazine-2-carboxamide] | < 0.1 µM | < 1 µM | – | – | – |
| C[C@H](NC(=O)c1cc(C#N)cnc1NCc1ccc(-c2cnc(N)c(C(N)=O)n2)cc1)c1ccc(F)cc1 [Example 217, (S)-3-amino-6-(4-((5-cyano-3-(1-(4-fluorophenyl)ethylcarbamoyl)pyridin-2-ylamino)methyl)phenyl) pyrazine-2-carboxamide] | – | – | < 0.1 µM | < 1 µM | – |
| C[C@H](NC(=O)c1cc(C#N)cnc1NCc1ccc(-c2cnc(N)cn2)cc1)c1ccc(F)cc1 [Example 120, (S)-2-(4-(5-amino-pyrazin-2-yl)benzylamino)-5-cyano-N-(1-(4-fluorophenyl)ethyl) nicotinamide] | – | – | < 0.1 µM | < 1 µM | – |
| C[C@H](NC(=O)c1nccnc1NCc1ccc(-c2cc3c(N)ncnc3cn2)s1)c1ccc(F)c(F)c1 [Example 3.78, 3-({[5-(4-aminopyrido[3,4-d]pyrimidin-6-yl)thiophen-2-yl]methyl}amino)-N-[(1S)-1-(3,4-difluorophenyl)ethyl] pyrazine-2-carboxamide (TFA salt)] | 0.1 to 1 µM | < 1 µM | – | – | – |
| Nc1ncnc2ccc(-c3ccc(CNc4ncccc4C(=O)N(Cc4cncc(F)c4)Cc4cncc(F)c4)s3)cc12 [Example 3.64, 2-(((5-(4-aminoquinazolin-6-yl)thiophen-2-yl)methyl)amino)-N,N-bis((5-fluoropyridin-3-yl)methyl)nicotinamide (TFA salt)] | > 5 µM | 1 to 10 µM | – | – | – |
| Cn1nc(Nc2ncccc2C(=O)NCc2ccc(F)c(F)c2)c2cc(-c3ccc4ncnc(N)c4c3)ccc21 [Example 14.2, 2-(5-(4-aminoquinazolin-6-yl)-1-methyl-1H-indazol-3-ylamino)-N-(3,4-difluorobenzyl)-nicotinamide] | < 0.1 µM | > 10 µM | – | – | – |
